Data from ChEMBL document CHEMBL1201862, “PubChem BioAssay data set” (2004).
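Protocol summary: plate cells (96-well), add compound at 5 concentrations, incubate 48 h, interpolate endpoints linearly. GI50 is the concentration that inhibits growth by half.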 Active and inactive are the calls of the source. Rule as the data show it: active = GI50 up to about 1.1 µM and inactive = higher.

Experiments:
Assay in all cases: DTP human tumour cell line panel, 48 h
SF-295 = test system: SF-295
M14 = test system: M14
NCI-H460 = test system: NCI-H460
NCI-H522 = test system: NCI-H522
HCT-15 = test system: HCT-15
SNB-75 = test system: SNB-75
RXF 393 = test system: RXF 393
Hs-578T = test system: Hs-578T
UO-31 = test system: UO-31
KM-20L2 = test system: KM-20L2
786-0 = test system: 786-0
OVCAR-4 = test system: OVCAR-4
TK-10 = test system: TK-10
HOP-92 = test system: HOP-92
UACC-257 = test system: UACC-257
SK-MEL-5 = test system: SK-MEL-5
KM12 = test system: KM12
U-251 = test system: U-251
NCI-H23 = test system: NCI-H23
T47D = test system: T47D

Row | SMILES | GI50 (SF-295) | GI50 (M14) | GI50 (NCI-H460) | GI50 (NCI-H522) | GI50 (HCT-15) [µM] | GI50 (SNB-75) | GI50 (RXF 393) | GI50 (Hs-578T) | GI50 (UO-31) | GI50 (KM-20L2) | GI50 (786-0) | GI50 (OVCAR-4) | GI50 (TK-10) | GI50 (HOP-92) | GI50 (UACC-257) | GI50 (SK-MEL-5) | GI50 (KM12) | GI50 (U-251) | GI50 (NCI-H23) | GI50 (T47D)
1 | COc1ccc(/C=C2\CCC(C)(CN(C)C)C2=O)cc1Br (stereo unspecified) | 26.3 µM (inactive) | 19.8 µM (inactive) | 26.7 µM (inactive) | 17 µM (inactive) | 16.9 | 25.6 µM (inactive) | 17.9 µM (inactive) | 30.5 µM (inactive) | 18.1 µM (inactive) | 1.26 µM (inactive) | 19.6 µM (inactive) | 18.9 µM (inactive) | 22 µM (inactive) | 29.9 µM (inactive) | 19.5 µM (inactive) | 14.8 µM (inactive) | 14 µM (inactive) | 21.8 µM (inactive) | 28.8 µM (inactive) | –
2 | Cc1c(Cl)cccc1NC(=O)C(=O)C1C(=O)NC(=O)NC1=O | > 100 µM (inactive) | > 100 µM (inactive) | > 100 µM (inactive) | > 100 µM (inactive) | > 100 | > 100 µM (inactive) | > 100 µM (inactive) | – | > 100 µM (inactive) | > 100 µM (inactive) | > 100 µM (inactive) | > 100 µM (inactive) | > 100 µM (inactive) | > 100 µM (inactive) | > 100 µM (inactive) | > 100 µM (inactive) | > 100 µM (inactive) | > 100 µM (inactive) | > 100 µM (inactive) | –
3 | N/C(=N\N=C\c1c[nH]c2ccccc12)Nc1ccccc1 | 0.134 µM (active) | 0.11 µM (active) | 0.251 µM (active) | 0.0596 µM (active) | 0.318 | 0.378 µM (active) | 0.156 µM (active) | 0.14 µM (active) | 0.721 µM (active) | 0.327 µM (active) | 0.318 µM (active) | 1.58 µM (inactive) | 1.28 µM (inactive) | 0.392 µM (active) | 0.304 µM (active) | 0.176 µM (active) | 0.153 µM (active) | 0.315 µM (active) | 0.308 µM (active) | 1.36 µM (inactive)
4 | CCOc1ccc(NC(=O)C(=O)NO)cc1 | > 100 µM (inactive) | > 100 µM (inactive) | > 100 µM (inactive) | > 100 µM (inactive) | > 100 | > 100 µM (inactive) | > 100 µM (inactive) | – | > 100 µM (inactive) | > 100 µM (inactive) | > 100 µM (inactive) | > 100 µM (inactive) | > 100 µM (inactive) | > 100 µM (inactive) | > 100 µM (inactive) | > 100 µM (inactive) | > 100 µM (inactive) | > 100 µM (inactive) | > 100 µM (inactive) | –
5 | O=c1[nH]c(=O)n(C2OC(COP(=O)(O)OP(=O)(O)O)C(O)C2O)cc1F (stereo unspecified) | 0.822 µM (active) | 1.55 µM (inactive) | 0.0453 µM (active) | 2.48 µM (inactive) | 0.446 | 8.65 µM (inactive) | 2.57 µM (inactive) | – | 6.08 µM (inactive) | 0.923 µM (active) | 0.239 µM (active) | 1.23 µM (inactive) | 15.6 µM (inactive) | > 50 µM (inactive) | 6.11 µM (inactive) | 4.31 µM (inactive) | 2.28 µM (inactive) | 0.391 µM (active) | 2.08 µM (inactive) | –
6 | CC(=O)OC1CCCn2c1nc1c2C(=O)C(C)=C(N2CC2)C1=O (stereo unspecified) | 0.16 µM (active) | 0.163 µM (active) | 0.0798 µM (active) | 0.156 µM (active) | 0.207 | 0.301 µM (active) | 0.284 µM (active) | – | 0.605 µM (active) | 0.45 µM (active) | 0.222 µM (active) | 0.773 µM (active) | 2.75 µM (inactive) | 27.8 µM (inactive) | 0.242 µM (active) | 0.185 µM (active) | 0.403 µM (active) | 0.201 µM (active) | 0.0923 µM (active) | –
